From ChEMBL document CHEMBL1201862, “PubChem BioAssay data set” (2004)
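Five concentrations, 48 hours, 96-well plates. GI50: concentration for 50% inhibition of growth.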 The source made the active and inactive calls. Cut-off read from the data, not from the text of the source: active = GI50 up to about 1.1 µM and inactive = higher.

Columns and labels:
Assay in all cases: NCI anticancer screen, dose series, 48 h
HCC 2998 = tested on: HCC 2998
HCT-116 = tested on: HCT-116
MDA-N = tested on: MDA-N
A549 = tested on: A549
PC-3 = tested on: PC-3
TK-10 = tested on: TK-10
MCF7 = tested on: MCF7
SNB-75 = tested on: SNB-75
RXF 393 = tested on: RXF 393
ACHN = tested on: ACHN
NCI-H23 = tested on: NCI-H23
NCI/ADR-RES = tested on: NCI/ADR-RES
SN12C = tested on: SN12C
T47D = tested on: T47D
OVCAR-3 = tested on: OVCAR-3
DU-145 = tested on: DU-145
M14 = tested on: M14
IGROV-1 = tested on: IGROV-1
LOX IMVI = tested on: LOX IMVI
SK-OV-3 = tested on: SK-OV-3
SK-MEL-2 = tested on: SK-MEL-2
SW-620 = tested on: SW-620
NCI-H226 = tested on: NCI-H226
SK-MEL-28 = tested on: SK-MEL-28
UO-31 = tested on: UO-31
MDA-MB-231 = tested on: MDA-MB-231
UACC-62 = tested on: UACC-62
SF-295 = tested on: SF-295
SF-539 = tested on: SF-539
RPMI-8226 = tested on: RPMI-8226
786-0 = tested on: 786-0
MOLT-4 = tested on: MOLT-4
KM12 = tested on: KM12
U-251 = tested on: U-251
CAKI-1 = tested on: CAKI-1
NCI-H460 = tested on: NCI-H460
Hs-578T = tested on: Hs-578T
OVCAR-5 = tested on: OVCAR-5
HT-29 = tested on: HT-29
HL-60 = tested on: HL-60
OVCAR-4 = tested on: OVCAR-4
Malme-3M = tested on: Malme-3M
SK-MEL-5 = tested on: SK-MEL-5
SF-268 = tested on: SF-268
MDA-MB-435 = tested on: MDA-MB-435
SR = tested on: SR
UACC-257 = tested on: UACC-257
SNB-19 = tested on: SNB-19
OVCAR-8 = tested on: OVCAR-8
HCT-15 = tested on: HCT-15
COLO 205 = tested on: COLO 205
NCI-H522 = tested on: NCI-H522
HOP-62 = tested on: HOP-62
K562 = tested on: K562
HOP-92 = tested on: HOP-92
A498 = tested on: A498
CCRF-CEM = tested on: CCRF-CEM
EKVX = tested on: EKVX

Measured: GI50

CN(CCCCCl)P(=O)(OCc1ccc([N+](=O)[O-])o1)OCC1OC(n2ccc(N)nc2=O)C(O)C1O (centres undefined)
active: A549 0.303 µM | SNB-75 0.571 µM | MOLT-4 0.305 µM | OVCAR-4 1.05 µM | SK-MEL-5 0.097 µM | COLO 205 1.05 µM
41.4 µM: HCT-15
inactive: HCC 2998 3.37 µM | HCT-116 3.68 µM | MDA-N 1.82 µM | PC-3 2.39 µM | TK-10 37.7 µM | MCF7 1.82 µM | RXF 393 6.21 µM | ACHN 11.7 µM | NCI-H23 5.79 µM | NCI/ADR-RES 4.47 µM | SN12C 3.52 µM | T47D 1.26 µM | OVCAR-3 2.1 µM | DU-145 6.93 µM | M14 7.48 µM | IGROV-1 3.08 µM | LOX IMVI 7.24 µM | SK-OV-3 4.17 µM | SK-MEL-2 9.79 µM | SW-620 2.45 µM | NCI-H226 11.4 µM | SK-MEL-28 2.33 µM | UO-31 14.2 µM | MDA-MB-231 18.9 µM | UACC-62 12.9 µM | SF-295 13.9 µM | SF-539 10.1 µM | RPMI-8226 1.57 µM | 786-0 13.4 µM | KM12 3.24 µM | U-251 2.14 µM | CAKI-1 55 µM | NCI-H460 2.29 µM | Hs-578T 1.26 µM | OVCAR-5 14.8 µM | HT-29 4.61 µM | HL-60 4.15 µM | Malme-3M 1.16 µM | SF-268 7.6 µM | MDA-MB-435 1.98 µM | SR 5.87 µM | UACC-257 2.21 µM | SNB-19 3.21 µM | OVCAR-8 2.82 µM | NCI-H522 3.15 µM | HOP-62 10.6 µM | K562 2.99 µM

[O-][N+]1=NC(c2ccccc2)=C1c1ccccc1
> 50 µM: HCT-15
inactive: HCT-116 > 50 µM | MDA-N > 50 µM | A549 > 50 µM | PC-3 > 50 µM | TK-10 > 50 µM | MCF7 > 50 µM | SNB-75 10.8 µM | RXF 393 > 50 µM | ACHN > 50 µM | NCI-H23 > 50 µM | NCI/ADR-RES > 50 µM | HOP-92 > 50 µM | SN12C > 50 µM | OVCAR-3 > 50 µM | DU-145 > 50 µM | M14 > 50 µM | IGROV-1 > 50 µM | LOX IMVI > 50 µM | SK-OV-3 > 50 µM | SK-MEL-2 > 50 µM | A498 > 50 µM | SW-620 > 50 µM | NCI-H226 > 50 µM | SK-MEL-28 > 50 µM | UO-31 > 50 µM | MDA-MB-231 > 50 µM | UACC-62 > 50 µM | SF-295 > 50 µM | SF-539 > 50 µM | RPMI-8226 > 50 µM | 786-0 > 50 µM | MOLT-4 > 50 µM | KM12 > 50 µM | CCRF-CEM > 50 µM | U-251 > 50 µM | CAKI-1 > 50 µM | NCI-H460 > 50 µM | Hs-578T > 50 µM | OVCAR-5 > 50 µM | HT-29 > 50 µM | HL-60 11.4 µM | OVCAR-4 > 50 µM | Malme-3M > 50 µM | SK-MEL-5 > 50 µM | SF-268 > 50 µM | MDA-MB-435 > 50 µM | UACC-257 > 50 µM | SNB-19 > 50 µM | OVCAR-8 > 50 µM | COLO 205 > 50 µM | NCI-H522 > 50 µM | EKVX > 50 µM | HOP-62 > 50 µM | K562 > 50 µM
